In patent publication US20250136556A1, “NOVEL MODULATORS OF THE ARYL HYDROCARBON RECEPTOR AND METHODS OF USE THEREOF” (Allianthera (Suzhou) Biopharmaceutical Co., Ltd., priority 2021, published 2025):
Where two headings read alike, the source gives them in different places.

What was measured:
[1] = biological target: T1, Human Aryl Hydrocarbon Receptor (AHR) (Homo sapiens, UniProt P35869); experiment: AHR agonist reporter assay in human cell line (INDIGO luciferase reporter); assay type: cell-based; settings: reporter cells; for EC50: 24 hours incubation; for AHR % activation to Tapinarof at 1 μM: 24 hours, value in brackets;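 as to all read-outs here: firefly luciferase luminescence read on a plate reader, values normalized against positive and negative controls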
T1 construct: purchased INDIGO Bioscience IB06001-32; host or cells: AHR Reporter Cell (proprietary kit cells)
T1 sequence (P35869 11-848): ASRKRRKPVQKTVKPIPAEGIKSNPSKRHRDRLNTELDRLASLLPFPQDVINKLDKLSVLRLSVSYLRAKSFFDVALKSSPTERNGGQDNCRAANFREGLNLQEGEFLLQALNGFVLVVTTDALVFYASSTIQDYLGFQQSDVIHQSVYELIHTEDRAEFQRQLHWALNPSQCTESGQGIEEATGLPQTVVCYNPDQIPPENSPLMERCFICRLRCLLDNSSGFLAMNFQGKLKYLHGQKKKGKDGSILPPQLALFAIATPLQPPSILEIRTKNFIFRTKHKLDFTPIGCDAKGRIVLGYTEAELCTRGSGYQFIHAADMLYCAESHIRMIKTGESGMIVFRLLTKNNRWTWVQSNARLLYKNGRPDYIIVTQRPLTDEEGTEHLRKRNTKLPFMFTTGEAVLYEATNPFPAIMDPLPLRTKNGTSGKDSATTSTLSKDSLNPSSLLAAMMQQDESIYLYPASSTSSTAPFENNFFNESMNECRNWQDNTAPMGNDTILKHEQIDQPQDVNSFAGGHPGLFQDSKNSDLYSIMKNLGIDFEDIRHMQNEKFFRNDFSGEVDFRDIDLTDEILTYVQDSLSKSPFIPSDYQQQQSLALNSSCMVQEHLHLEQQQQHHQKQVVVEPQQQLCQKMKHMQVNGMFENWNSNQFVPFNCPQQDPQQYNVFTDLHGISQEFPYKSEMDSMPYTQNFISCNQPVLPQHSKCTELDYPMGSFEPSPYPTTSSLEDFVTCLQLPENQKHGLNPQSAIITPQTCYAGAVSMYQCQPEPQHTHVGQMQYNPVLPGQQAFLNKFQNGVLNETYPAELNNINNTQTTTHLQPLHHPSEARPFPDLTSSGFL
Description: The AHR reporter assay was performed following the protocol of the Human Aryl Hydrocarbon Receptor (AHR) Reporter Assay System (INDIGO Bioscience, #IB06001-32). AHR Reporter Cell was thawed and pre-incubated in Cell Recovery Medium (CRM) for 6 hours. […] Following 24 hours incubation, the media was removed and Luciferase Detection Reagent (LDR) added. The firefly luciferase activity was quantified using a plate reader. Results were normalized by positive and negative controls.

[2] = system: Human Nuclear Factor (erythroid-derived2)-like 2 (Nrf2); experiment: Nrf2 transcription factor activity reporter assay in human cell line (INDIGO luciferase reporter); assay type: cell-based; settings: reporter cells; for EC50: 24 hours incubation; for Nrf2 % activation to Tapinarof at 9 μM: 24 hours, value in brackets
Description: The Nrf2 reporter assay was performed following the protocol of the Human Nuclear Factor (erythroid-derived2)-like 2 (Nrf2) Reporter Assay System (INDIGO Bioscience, #IB10001). Nrf2 Reporter Cell was thawed and pre-incubated in Cell Recovery Medium (CRM) for 6 hours. The media was then removed and the cells were incubated with Compound Screening Medium (CSM) in the absence (negative control) or presence of increasing concentrations of test compounds (typical dilution: 128 pM, 640 pM, 3.2 nM, 16 nM, 80 nM, 400 nM, […] in duplicates) for 24 hours. For positive control, cells activated with CDDO or Nrf2 agonists described in literature. Following 24 hours incubation, the media was removed and Luciferase Detection Reagent (LDR) added. The firefly luciferase activity was quantified using a plate reader. Results were normalized by positive and negative controls.

[3] = system: IL-6 gene expression in human primary M1 macrophage cells; experiment: AHR-regulated IL-6 inhibition in human primary M1 macrophage (qPCR); assay type: cell-based; settings: LPS/IFN-gamma/GM-CSF, 24 hours; for IC50: read-out: M1 assay IL6 -IC50
Description: Human M1 macrophage was differentiated from PBMC. Briefly, at day 1, monocytes were isolated from human PBMC using EasySe Human Monocyte Enrichment Kit without CD16 Depletion (Stemcell, 19058). The isolated monocytes were seeded at 3×10^7 cells in 15 cm dish using 30 ml medium containing 50 ng/ml GM-CSF (R&D, 215-GM-050/CF). At day 5, 30 ml fresh medium containing 50 ng/ml GM-CSF was added. At day 8, 1.5×10^5 cells/well were re-seeded into 24 wells plate, and 500 ul medium containing 10 ng/ml LPS (Sigma, L7770), 20 ng/ml IFN-gamma (PeproTech, 300-02), 50 ng/ml GM-CSF and the test compounds was added. […] The IL-6 expression was inhibited with AHR agonists described in literature as the positive inhibition control, alternatively the un-stimulated cells were used as the negative inhibition control. […] The primers for human GAPDH (F: […]; R: […]) and human IL-6 (F: […]; R: […]) were used to analyze fold expression of IL-6 of GAPDH by quantitative PCR.

[4] = system: AHR-regulated gene CYP1A1; experiment: AHR-regulated CYP1A1 expression in human monocytic U937 cell line (qPCR); settings: U937 cells, 16 hours, CYP1A1 relative to GAPDH
Description: To evaluate the AHR agonist activity of the test compounds, quantitative PCR analysis was used to determine expression level of the AHR-regulated gene CYP1A1 in a human monocytic U937 cell line. U937 cells were seeded at a concentration of 5×10^5 cells/well in 200 μL of growth medium in 96-well cell culture microplates. CYP1A1 expression was induced with AHR agonists described in literature as a positive control or the test compounds for 16 hours. […] Unstimulated cells were used as the negative control. Taqman probes for human CYP1A1 (Hs01054797_g1) and human GAPDH (Hs02786624_g1) were used to analyze fold expression of CYP1A1 of GAPDH.

[5] = second line of cell, read-out: AHR abEC50
[6] = second line of cell, read-out: Nrf2 EC50, second line of cell (head does not name it)
[7] = first line of cell, read-out: AHR reEC50
[8] = first line of cell, read-out: Nrf2 reEC50

## CC(C)c1c(O)cc(-c2ccc3ccccc3n2)cc1O [Compound 47]
[1]; [5]
  EC50: 4.21 nM
[2]; [6]
  EC50: 530 nM

## CC(C)c1c(O)cc(/C=C/c2ccccc2)cc1F [Compound 135]
[1]; [5]
  EC50: 38.6 nM
[3]
  M1 assay IL6 -max % inhibition (% to no treatment): 95.30%
  IC50: 1.7 nM

## CC(C)c1c(O)cc(-c2cc(F)c3ncccc3c2)cc1F [Compound 145]
[3]
  M1 assay IL6 -max % inhibition (% to no treatment): 94.10%
  IC50: 1.9 nM

## Cc1ccnc2cc(-c3cc(O)c(C(C)C)c(O)c3)ccc12 [Compound 22]
[1]; [5]
  EC50: 2.12 nM
[3]
  M1 assay IL6 -max % inhibition (% to no treatment): 77.20%
  IC50: 0.05 nM

## CC(C)c1c(O)cc(-c2ccc3cc(F)ccc3n2)cc1F [Compound 143]
[3]
  M1 assay IL6 -max % inhibition (% to no treatment): 91.80%
  IC50: 2.7 nM

## COc1cc(Oc2ccccc2)cc(O)c1C(C)C [Compound 133, 2-isopropyl-3-methoxy-5-phenoxyphenol]
[1]; [5]
  EC50: 233 nM
[2]; [6]
  EC50: > 400 nM

## CCCc1c(O)cc(-c2ccc3c(C)ccnc3c2)cc1F [Compound 161]
[3]
  M1 assay IL6 -max % inhibition (% to no treatment): 91.30%
  IC50: 1.19 nM

## C=C(C)c1c(OC)cc(/C=C/c2ccccc2)cc1OC [Compound 110, 1,3-dimethoxy-5-[(E)-2-phenylethenyl]-2-(prop-1-en-2-yl)benzene]
[1]; [5]
  EC50: > 100 nM
[2]; [6]
  EC50: > 100 nM

## CC(C)c1ncc(-c2cnc3ccccc3c2)cc1O [Compound 99]
[1]; [5]
  EC50: > 100 nM
[2]; [6]
  EC50: 100 nM

## CC(C)c1c(O)cc(-c2ccc3ncccc3c2F)cc1F [Compound 140]
[3]
  M1 assay IL6 -max % inhibition (% to no treatment): 92.30%
  IC50: 0.13 nM

## CC(C)c1c(O)cc(-c2cnc3ccccc3c2)cc1O [Compound 48]
[1]; [7]
  EC50: 64.3 nM
[1]; [5]
  EC50: 57.5 nM
[1]
  AHR % activation to Tapinarof at 1 μM: 69.5%
[2]; [8]
  EC50: 14.5 nM
[2]; [6]
  EC50: 29.6 nM
[2]
  Nrf2 % activation to Tapinarof at 9 μM: 84.4%
[3]
  M1 assay IL6 -max % inhibition (% to no treatment): 89.60%
  IC50: 3 nM
[4]
  CYP1A1 (% activation to Tapinarof at 1 μM): 78.4%

## CC(C)c1c(O)cc(-c2nc3ccccc3[nH]2)cc1O [Compound 50]
[1]; [5]
  EC50: 17.4 nM
[2]; [6]
  EC50: 20 nM

## CC(C)c1c(O)cc(-c2cc(F)c3cnc(N)nc3c2)cc1F [Compound 149]
[3]
  M1 assay IL6 -max % inhibition (% to no treatment): 91.10%
  IC50: 0.5 nM

## CCCc1c(O)cc(-c2cnc3c(F)c(F)ccc3c2)cc1F [Compound 155]
[3]
  M1 assay IL6 -max % inhibition (% to no treatment): 89.10%
  IC50: 3.5 nM

## CC(C)c1ncc(-c2nc3ccccc3o2)cc1O [Compound 100]
[1]; [7]
  EC50: 21.9 nM
[1]; [5]
  EC50: > 1000 nM
[1]
  AHR % activation to Tapinarof at 1 μM: 49.7%
[2]; [8]
  EC50: 200 nM
[2]; [6]
  EC50: 890 nM
[2]
  Nrf2 % activation to Tapinarof at 9 μM: 62.3%
[4]
  CYP1A1 (% activation to Tapinarof at 1 μM): 90.5%

## CC(C)c1ncc(/C=C/c2ccccc2F)cc1O [Compound 112, 5-[(E)-2-(2-fluorophenyl)ethenyl]-2-isopropylpyridin-3-ol]
[1]; [5]
  EC50: 99 nM
[2]; [6]
  EC50: 97 nM
[3]
  M1 assay IL6 -max % inhibition (% to no treatment): 77.90%
  IC50: 1.57 nM
